The numbers were not newly measured in paper PMC2923200, “Identification of a Cardiac Specific Protein Transduction Domain by In Vivo Biopanning Using a M13 Phage Peptide Display Library in Mice” (PLoS ONE, 2010), which cites them from elsewhere.

The conditions of this series: in vitro phage display screening by other investigators. The text has this:
However, it is unclear how the ability of CTP to interact with these cellular components in vitro facilitates transduction of cardiac specific tissue in vivo. We currently are examining whether the transduction process is energy independent as well as whether it involves endocytosis. Also, the s ...

Take APWHLSSQYSRT [CTP]: the “affinity for binding to apatite-based, bone-like minerals” value is given as “high affinity” and the “affinity for binding to two specific sulfated carbohydrates” value is “high affinity”.
